The target in assay [1] is T1, 12-LOX mutant L407G/A417I/V418M (Homo sapiens, UniProt P18054, A417I/L407G/V418M).
T1 construct: 6xHis (N); made in house; pFastBac1 shuttle vector
T1 sequence (P18054 1-663 L407G/A417I/V418M): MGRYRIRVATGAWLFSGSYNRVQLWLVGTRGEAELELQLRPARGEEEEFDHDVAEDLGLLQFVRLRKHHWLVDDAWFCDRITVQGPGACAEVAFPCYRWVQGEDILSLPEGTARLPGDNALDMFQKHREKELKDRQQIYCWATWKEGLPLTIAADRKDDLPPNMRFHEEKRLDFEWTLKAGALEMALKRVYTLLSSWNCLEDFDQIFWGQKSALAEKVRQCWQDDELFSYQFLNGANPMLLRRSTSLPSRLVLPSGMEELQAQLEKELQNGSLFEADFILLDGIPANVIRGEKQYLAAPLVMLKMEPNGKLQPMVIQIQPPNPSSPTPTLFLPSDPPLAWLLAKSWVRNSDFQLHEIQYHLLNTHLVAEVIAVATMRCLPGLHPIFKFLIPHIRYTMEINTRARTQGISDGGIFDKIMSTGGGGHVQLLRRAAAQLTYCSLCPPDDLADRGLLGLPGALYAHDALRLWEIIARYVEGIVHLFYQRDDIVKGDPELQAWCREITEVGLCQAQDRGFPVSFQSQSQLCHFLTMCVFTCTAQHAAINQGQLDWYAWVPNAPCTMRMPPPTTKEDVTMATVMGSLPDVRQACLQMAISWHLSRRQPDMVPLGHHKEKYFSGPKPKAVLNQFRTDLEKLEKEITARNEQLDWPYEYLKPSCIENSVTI
In words: UV-Vis-based IC50 assay, L407G/A417I/V418M mutant. It counts as biochemical. An excerpt: Based on the ML355 binding mode predicted by the modeling, all residues within 5 Å of any atom of ML355 were selected for experimental mutagenesis. The selected residues were replaced with amino acids with either bulkier or smaller side chains in order to determine what specific interactions play a role in inhibitor binding. […] The numbering refers to the UniProt accession number P18054 sequence, with the N-terminal methionine assigned as amino acid number one. The primers for all mutants were designed using the online QuikChange Primer Design tool (http://www.genomics.agilent.com/primerDesignProgram.jsp) from Agilent Technologies (CA, USA). The mutations were introduced by using the QuikChange® II XL site-directed mutagenesis kit from Agilent, following the instructions in the protocol provided. […]
The wild type 12-LOX (wt-12-LOX) enzyme and its mutants were expressed as fusion proteins, with an N-terminal 6×His tag, and were affinity purified by nickel-iminodiacetic acid agarose using FPLC (Biorad).
The percent inhibition was determined by comparing the enzyme rates of the control (DMSO solvent) and the inhibitor sample by following the formation of the conjugated diene product at 234 nm (ε=25,000 M^−1cm^−1). […] The substrate concentration was quantitatively determined by allowing the enzymatic reaction to go to completion in the presence of soybean LOX-1. […]

Assay [2] relates to other LOX isozymes (h5-LOX, h15-LOX-1, h15-LOX-2). Description: Inhibitor selectivity against other LOX isozymes. It counts as biochemical, human. An excerpt: The wild type 12-LOX (wt-12-LOX) enzyme and its mutants were expressed as fusion proteins, with an N-terminal 6×His tag, and were affinity purified by nickel-iminodiacetic acid agarose using FPLC (Biorad). For inhibitor selectivity, human 5-LOX (h5-LOX, UniProt entry P09917), human reticulocyte 15-LOX-1 (h15-LOX-1, UniProt entry P16050) and human epithelial 15-LOX-2 (h15-LOX-2, UniProt entry 015296) were also isolated. The purity of all the proteins, except h5-LOX, was greater than 90% as determined by SDS-PAGE analysis. h5-LOX was an ammonium sulfate fraction due to the extensive loss of activity upon purification.
IC50 values of ML355 against 12-LOX and its mutants were determined in a similar manner as the steady state kinetic values. The percent inhibition was determined by comparing the enzyme rates of the control (DMSO solvent) and the inhibitor sample by following the formation of the conjugated diene product at 234 nm (ε=25,000 M^−1cm^−1). The reactions were initiated by adding 200 nM 15-LOX-2, 30 nM 12-LOX, 40 nM 15-LOX-1, or approximately 100-300 nM (total protein) of 5-LOX ammonium sulfate fraction to a cuvette with 2 mL reaction buffer, constantly stirred using a magnetic stir bar at room temperature (22° C.). […] The substrate concentration was quantitatively determined by allowing the enzymatic reaction to go to completion in the presence of soybean LOX-1. […]

With `COc1cccc(CNc2ccc(S(=O)(=O)Nc3nc4c(ccc5ccccc54)s3)cc2)c1O` [Compound LOX-12-001, 4-((2-hydroxy-3-methoxybenzyl)amino)-N-(naphtho[1,2-d]thiazol-2-yl)benzenesulfonamide], in assay [1], the IC50 was over 150 µM. In addition, in assay [1] (20 uM inhibitor, read-out: Percent inhibition at 20 uM inhibitor), the inhibition at 20 µM was 10%. Further, the “selectivity against other LOX isozymes” value in assay [2] is on record as “maintained”.

The IC50 is the midpoint of a concentration-inhibition curve. The term inhibition denotes the change of the read-out against control, counted positive when it falls.

These data come from US20240279190A1, “COMPOUNDS FOR MODULATING PLATELET-TYPE 12-(S)-LIPOXYGENASE AND METHODS OF USE FOR SAME” (The Regents of The University of California, priority 2021, published 2024).
